Assay results reported in PubChem BioAssay (NCI).
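A five-concentration, 48-hour dose response in 96-well plates underlies each endpoint, interpolated linearly between surrounding concentrations. GI50 = concentration required for 50% inhibition of growth. TGI is the concentration that stops growth completely.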

Legend:
Assay in all cases: NCI-60 cell line screen, 48 h
[1] = tested on: A549 NSCLC
[2] = tested on: HCT-15 colon
[3] = tested on: M14 melanoma
[4] = tested on: SK-OV-3 ovarian
[5] = tested on: HS 578T breast
[6] = tested on: MDA-MB-435
[7] = tested on: SF-539 CNS
[8] = tested on: DU-145 prostate
[9] = tested on: OVCAR-8 ovarian
[10] = tested on: HOP-92 NSCLC
[11] = tested on: RXF 393 renal
[12] = tested on: MDA-MB-231 breast
[13] = tested on: NCI-H23 lung
[14] = tested on: SW-620 colon
[15] = tested on: UACC-62 melanoma
[16] = tested on: NCI-H226 lung
[17] = tested on: IGROV1 ovarian
[18] = tested on: MCF7 breast
[19] = tested on: SF-268 CNS
[20] = tested on: MOLT-4 leukemia
[21] = tested on: SR leukemia
[22] = tested on: OVCAR-4 ovarian
[23] = tested on: HT29 colon
[24] = tested on: SK-MEL-5 melanoma
[25] = tested on: UO-31 renal
[26] = tested on: U251 CNS
[27] = tested on: KM12 colon
[28] = tested on: COLO 205 colon
[29] = tested on: CAKI-1 renal
[30] = tested on: UACC-257 melanoma
[31] = tested on: OVCAR-3 ovarian
[32] = tested on: HCC-2998 colon
[33] = tested on: HL-60(TB) leukemia
[34] = tested on: SK-MEL-2 melanoma
[35] = tested on: SK-MEL-28 melanoma
[36] = tested on: NCI/ADR-RES ovarian
[37] = tested on: K-562 leukemia
[38] = tested on: LOX IMVI melanoma
[39] = tested on: NCI-H460 lung
[40] = tested on: PC-3 prostate
[41] = tested on: RPMI-8226 leukemia
[42] = tested on: ACHN renal
[43] = tested on: OVCAR-5 ovarian
[44] = tested on: SNB-75 CNS
[45] = tested on: EKVX NSCLC
[46] = tested on: HOP-62 NSCLC
[47] = tested on: TK-10 renal
[48] = tested on: T-47D breast
[49] = tested on: BT-549 breast
[50] = tested on: A498 renal
[51] = tested on: SN12C renal
[52] = tested on: SF-295 CNS
[53] = tested on: HCT-116 colon
[54] = tested on: SNB-19 CNS
[55] = tested on: CCRF-CEM leukemia
[56] = tested on: MALME-3M melanoma
[57] = tested on: 786-0 renal
[58] = tested on: NCI-H522 lung

With `O=C(N/N=C\c1ccc([N+](=O)[O-])cc1)c1ccc2nc(-c3ccc(Br)cc3)[nH]c2c1` the GI50 [1] was 1.61 µM, the TGI [1] was greater than 31.2 µM and the GI50 [2] was 1.22 µM. It also gave a TGI [2] of 14.8 µM, a GI50 [3] of 1.4 µM and a TGI [3] of 6.69 µM. It also gave a GI50 [4] of 2.9 µM, a TGI [4] greater than 70.7 µM and a GI50 [5] of 1.59 µM. It also gave a TGI [5] of 17 µM, a GI50 [6] of 1.42 µM and a TGI [6] of 5.06 µM. The GI50 [7] was 1.92 µM, the TGI [7] was 7.9 µM and the GI50 [8] was 1.63 µM. It also gave a TGI [8] greater than 54.2 µM, a GI50 [9] of 0.979 µM and a TGI [9] of 4.62 µM. The GI50 [10] was 2.58 µM, the TGI [10] was 9.26 µM and the GI50 [11] was 1.13 µM. It also gave a TGI [11] of 3.79 µM, a GI50 [12] of 2.93 µM and a TGI [12] of 12 µM. It also gave a GI50 [13] of 0.398 µM, a TGI [13] of 3.16 µM and a GI50 [14] of 1.27 µM. For the same molecule, the TGI [14] was 4.95 µM, the GI50 [15] was 1.61 µM and the TGI [15] was 14.5 µM. It also gave a GI50 [16] of 2.58 µM, a TGI [16] greater than 54.7 µM and a GI50 [17] of 1.61 µM. It also gave a TGI [17] of 14.8 µM, a GI50 [18] of 0.704 µM and a TGI [18] of 2.26 µM. It also gave a GI50 [19] of 3.87 µM, a TGI [19] of 96.9 µM and a GI50 [20] of 0.912 µM. For the same molecule, the TGI [20] was 4.39 µM, the GI50 [21] was 0.891 µM and the TGI [21] was 4.55 µM. For the same molecule, the GI50 [22] was 1.45 µM, the TGI [22] was greater than 43 µM and the GI50 [23] was 0.939 µM. The TGI [23] was 2.68 µM, the GI50 [24] was 0.912 µM and the TGI [24] was 2.88 µM. For the same molecule, the GI50 [25] was 2.16 µM, the TGI [25] was greater than 51.1 µM and the GI50 [26] was 1.11 µM. The TGI [26] was 3.41 µM, the GI50 [27] was 1.2 µM and the TGI [27] was 9.3 µM. It also gave a GI50 [28] of 0.842 µM, a TGI [28] of 2.1 µM and a GI50 [29] of 1.67 µM. It also gave a TGI [29] of 22.6 µM, a GI50 [30] of 1.26 µM and a TGI [30] of 6.35 µM. It also gave a GI50 [31] of 3.08 µM, a TGI [31] of 7.95 µM and a GI50 [32] of 1.3 µM. The TGI [32] was 3.96 µM, the GI50 [33] was 0.801 µM and the TGI [33] was 4.96 µM. The GI50 [34] was 3.99 µM, the TGI [34] was 16.6 µM and the GI50 [35] was 1.9 µM. The TGI [35] was 11.7 µM, the GI50 [36] was 18.5 µM and the TGI [36] was greater than 100 µM. For the same molecule, the GI50 [37] was 0.882 µM, the TGI [37] was 4.18 µM and the GI50 [38] was 0.978 µM. The TGI [38] was 3.14 µM, the GI50 [39] was 0.914 µM and the TGI [39] was 2.53 µM. It also gave a GI50 [40] of 1.3 µM, a TGI [40] of 9.4 µM and a GI50 [41] of 0.875 µM. It also gave a TGI [41] of 2.88 µM, a GI50 [42] of 1.92 µM and a TGI [42] greater than 51.7 µM. It also gave a GI50 [43] of 2.63 µM, a TGI [43] greater than 58.8 µM and a GI50 [44] of 3.79 µM. The TGI [44] was 20 µM, the GI50 [45] was 1.81 µM and the TGI [45] was 97.5 µM. It also gave a GI50 [46] of 1.9 µM, a TGI [46] of 10.5 µM and a GI50 [47] of 2.96 µM. The TGI [47] was 26 µM, the GI50 [48] was 0.955 µM and the TGI [48] was 3.28 µM. The GI50 [49] was 0.911 µM, the TGI [49] was 3.4 µM and the GI50 [50] was 1.62 µM. For the same molecule, the TGI [50] was 8.34 µM, the GI50 [51] was 1.22 µM and the TGI [51] was 14.1 µM. For the same molecule, the GI50 [52] was 1.3 µM, the TGI [52] was 13.4 µM and the GI50 [53] was 1.02 µM. The TGI [53] was 3.68 µM, the GI50 [54] was 2.29 µM and the TGI [54] was 39.6 µM. It also gave a GI50 [55] of 1.34 µM, a TGI [55] of 8.01 µM and a GI50 [56] of 1.27 µM. For the same molecule, the TGI [56] was 4.63 µM, the GI50 [57] was 2.92 µM and the TGI [57] was 13 µM. It also gave a GI50 [58] of 0.903 µM and a TGI [58] of 2.92 µM.

In the case of `Nc1ncc(-c2ccc3ncnc(N4CCc5cc(F)c(F)cc54)c3c2)cn1`, the GI50 [1] is reported as 2.35 µM, the TGI [1] is reported as greater than 100 µM and the GI50 [2] is reported as 2.28 µM. For the same molecule, the TGI [2] was greater than 100 µM, the GI50 [3] was 3.53 µM and the TGI [3] was greater than 100 µM. It also gave a GI50 [4] of 1.66 µM, a TGI [4] greater than 100 µM and a GI50 [5] of 0.751 µM. The TGI [5] was 4.66 µM, the GI50 [6] was 2.73 µM and the TGI [6] was greater than 100 µM. For the same molecule, the GI50 [7] was 2.49 µM, the TGI [7] was greater than 100 µM and the GI50 [8] was 2.38 µM. It also gave a TGI [8] greater than 100 µM, a GI50 [9] of 3.06 µM and a TGI [9] greater than 100 µM. It also gave a GI50 [11] of 0.381 µM, a TGI [11] of 3.15 µM and a GI50 [12] of 1.87 µM. It also gave a TGI [12] greater than 100 µM, a GI50 [13] of 4.76 µM and a TGI [13] greater than 100 µM. The GI50 [14] was 6.86 µM, the TGI [14] was greater than 100 µM and the GI50 [15] was 1.37 µM. It also gave a TGI [15] greater than 100 µM, a GI50 [16] of 3 µM and a TGI [16] greater than 100 µM. The GI50 [17] was 0.459 µM, the TGI [17] was 3.34 µM and the GI50 [18] was 1.23 µM. For the same molecule, the TGI [18] was greater than 100 µM, the GI50 [19] was 1.8 µM and the TGI [19] was greater than 100 µM. The GI50 [20] was 3.32 µM, the TGI [20] was greater than 100 µM and the GI50 [21] was 1.82 µM. It also gave a TGI [21] greater than 100 µM, a GI50 [22] of 1.76 µM and a TGI [22] greater than 100 µM. It also gave a GI50 [23] of 2.9 µM, a TGI [23] greater than 100 µM and a GI50 [24] of 6.1 µM. The TGI [24] was greater than 100 µM, the GI50 [25] was 0.396 µM and the TGI [25] was greater than 100 µM. It also gave a GI50 [26] of 4.81 µM, a TGI [26] greater than 100 µM and a GI50 [27] of 3.92 µM. The TGI [27] was greater than 100 µM, the GI50 [28] was 5.77 µM and the TGI [28] was greater than 100 µM. For the same molecule, the GI50 [29] was 0.89 µM, the TGI [29] was greater than 100 µM and the GI50 [30] was 7.3 µM. It also gave a TGI [30] greater than 100 µM, a GI50 [32] of 3.08 µM and a TGI [32] greater than 100 µM. It also gave a GI50 [33] of 5.52 µM, a TGI [33] greater than 100 µM and a GI50 [34] of 2.44 µM. It also gave a TGI [34] of 12.3 µM, a GI50 [35] of 3.26 µM and a TGI [35] greater than 100 µM. It also gave a GI50 [36] of 3.91 µM, a TGI [36] greater than 100 µM and a GI50 [37] greater than 100 µM. It also gave a TGI [37] greater than 100 µM, a GI50 [38] of 1.77 µM and a TGI [38] of 14.1 µM. The GI50 [39] was 2.11 µM, the TGI [39] was greater than 100 µM and the GI50 [40] was 1.44 µM. It also gave a TGI [40] greater than 100 µM, a GI50 [41] of 0.559 µM and a TGI [41] greater than 100 µM. The GI50 [42] was 1.73 µM, the TGI [42] was greater than 100 µM and the GI50 [43] was 1.53 µM. It also gave a TGI [43] greater than 100 µM, a GI50 [44] of 0.455 µM and a TGI [44] of 4.03 µM. It also gave a GI50 [45] of 1.7 µM, a TGI [45] greater than 100 µM and a GI50 [46] of 1.36 µM. The TGI [46] was greater than 100 µM, the GI50 [47] was 0.709 µM and the TGI [47] was greater than 100 µM. For the same molecule, the GI50 [48] was 0.858 µM, the TGI [48] was greater than 100 µM and the GI50 [49] was 1.86 µM. It also gave a TGI [49] greater than 100 µM, a GI50 [50] of 0.251 µM and a TGI [50] of 2.13 µM. It also gave a GI50 [51] of 2.11 µM, a TGI [51] greater than 100 µM and a GI50 [52] of 2.3 µM. It also gave a TGI [52] greater than 100 µM, a GI50 [53] of 4.51 µM and a TGI [53] greater than 100 µM. For the same molecule, the GI50 [54] was 5.35 µM, the TGI [54] was greater than 100 µM and the GI50 [55] was 2.38 µM. The TGI [55] was greater than 100 µM, the GI50 [56] was 1.08 µM and the TGI [56] was greater than 100 µM. For the same molecule, the GI50 [57] was 3.42 µM, the TGI [57] was greater than 100 µM and the GI50 [58] was 4.94 µM. It also gave a TGI [58] greater than 100 µM.
